Series [1] deals with human PCSK9 locus. The experiment in a line: Secreted PCSK9 by ELISA in Huh7 cells transfected with mRNA and gRNA. The series is classed as cell-based. The conditions noted are these: Huh7 cells; for Secreted PCSK9: 6 days post-transfection, normalized to total cell count; for Percent reduction in PCSK9 secretion: day 6, relative to non-targeting gRNA control. An outline of the steps: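 Huh7 (also HepG2, Hep3B) cells were transfected with mRNA for CasX 676, dXR1 or LTRP5-ADD-ZIM3 plus scaffold 316 gRNA targeting PCSK9 or B2M; one screen used 50:25 or 25:12.5 ng mRNA:gRNA. Supernatant PCSK9 was measured by ELISA at 4–87 days post-transfection and normalized to cell count.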
(In general: In an ELISA, binding on a coated surface is turned into a signal by an enzyme label.)

Series [2] relates to PCSK9 locus. In words: RNA-seq, normalized PCSK9 read counts in transfected Huh7 cells. It is filed as cell-based, human. The conditions noted are these: Huh7, mRNA + gRNA scaffold 316 v1, 6 and 26 days post-transfection. The text has this:
(§1) Seeded Huh7 cells were transfected with mRNA encoding a catalytically-active CasX 676, dXR1, or LTRP5-ADD-ZIM3 and a gRNA with scaffold 316 and a spacer targeting the PCSK9 locus. Cells were harvested at 6 and 26 days post-transfection and subsequently lysed and stored in DNA/RNA Shield (Zymo Research). As an additional control, untreated, naïve cells were also harvested. The collected samples were subjected to gDNA/RNA extraction using the Quick-DNA/RNA Miniprep Plus kit (Zymo Research). RNA samples were used for total RNA sequencing (RNA-seq), which was performed by a third-party. Raw FASTQ files were received and processed with FASTQC, and adapters were trimmed using Trim Galore. Transcript expression was then quantified against the hg38 genome using Salmon to generate normalized counts for each gene (transcripts per million, or TPM). Differential expression analysis was performed using DESeq2. Genes with fewer than 10 counts in all samples were omitted from analysis, and all pairwise comparisons (e.g., differential gene expression analyses between untreated and treated conditions at the two individual timepoints) were done with significance thresholds of |log 2FC|>2 and adjusted p-value<0.001.

Series [3] has as its system Huh7 cells. The experiment in a line: RNA-seq, differentially regulated off-target genes in transfected Huh7 cells. The series is classed as cell-based, human. The conditions noted are these: Huh7, 6 and 26 days post-transfection, |log2FC|>2 and adjusted p-value<0.001.
From the text: as §1

For series [4], the system named is mouse PCSK9 locus. The experiment in a line: Intracellular PCSK9 staining by flow cytometry in Hepa1-6 cells lipofected with mRNA and gRNA. It is filed as cell-based. The conditions noted are these: Hepa1-6, dXR1 mRNA, day 6. The procedure: Seeded Hepa1-6 cells treated with the NATE™ inhibitor were lipofected with 300 ng of mRNA encoding dXR1 or LTRP1-ZIM3 (Table 12) and 150 ng of a PCSK9-targeting gRNA (Table 14). Seven different gRNAs spanning the promoter region of the mouse PCSK9 locus were tested, in addition to a non-targeting sequence complementary to the human PCSK9 gene (Table 14). Cells were harvested at 6, 13, and 25 days after transfection to measure intracellular levels of the PCSK9 protein using an intracellular flow cytometry staining protocol. […]
Seeded Hepa1-6 cells treated with the NATE™ inhibitor were lipofected with 300 ng of mRNA encoding LTRP1-ZIM3, LTRP5-ZIM3, catalytically-active CasX 491, or dCas9-ZNF10-DNMT3A/3L, and 150 ng of PCSK9-targeting gRNA (Table 14). Intracellular levels of PCSK9 protein were measured at 7, 14, 21, 36, and 71 days post-transfection using an intracellular staining protocol as described earlier for experiment #1.
Transfection of mRNA and gRNA into Hepa1-6 cells and intracellular PCSK9 staining were performed as described in Example 2. […] Intracellular levels of PCSK9 protein were measured at various timepoints, up to day 53 post-transfection using an intracellular staining protocol as described earlier in Example 2. […]
A general note: In flow cytometry, cells or beads pass a laser one at a time.

The source of these data is patent US12594349B2, “Compositions and methods for the targeting of PCSK9” (Scribe Therapeutics Inc., priority 2022, dated 2026).

Turning to “TG-06-167 (guide CACUGAAUAGCGCAGCCGCA; listed as RNA, chemistry not given here)”, the “Secreted PCSK9” value in series [1] (LTRP5-ADD-ZIM3 mRNA + gRNA scaffold 316, 25 ng mRNA:12.5 ng gRNA) is 66.61 ng/mL; in series [1] (LTRP5-ADD-ZIM3 mRNA + gRNA scaffold 316, 50 ng mRNA:25 ng gRNA), 39.55 ng/mL. Further, the “Percent reduction in PCSK9 secretion” value is reported as 6.51% in series [1] (LTRP5-ADD-ZIM3 mRNA, 25 ng mRNA:12.5 ng gRNA) and 51.93% in series [1] (LTRP5-ADD-ZIM3 mRNA, 50 ng mRNA:25 ng gRNA). The “Average percent reduction in PCSK9 secretion” value in series [1] (LTRP5-ADD-ZIM3 mRNA, day 6, averaged from the two doses) worked out at 29.22%. Also, the “PCSK9 expression by RNA-seq” value in series [2] was “durably repress PCSK9 expression”. In addition, the “differentially regulated off-target genes” value in series [3] is listed as “higher number of differentially regulated off-target genes”.

B1: 27.100 (nucleic acid)
guide: ACUUUGAGAGCCAUCACCAGCGACUAUGUCGUAGUGGGUAAAGCUCCCUCUUCGGAGGGAGCAUCAAAGCUCUCUCUUUCUGAGGCmU*mA*mG
modifications: as printed in the source, key not given here
As to B1, the “degree of repression with dXR1 mRNA compared with LTRP1-ZIM3 mRNA” value in series [4] is “less substantial”.
